This passage reports MIC results from ChEMBL document CHEMBL3046626, “Antifungal chalcones and new caffeic acid esters from Zuccagnia punctata acting against soybean infecting fungi” (2004).

In brackets after ≈: the same amount, converted by molar mass.

What all share (type): functional
For one assay, the system named is Diaporthe longicolla. Description: Antifungal activity against Diaporthe longicolla CE117 after 48 to 72 hr.
The test system of the next assay is Macrophomina phaseolina. Description: Antifungal activity against Macrophomina phaseolina isolate CE173 after 48 to 72 hr.
Assay [1] deals with Fusarium graminearum. Description: microbe, parasite or virus in culture. Particulars: isolate CE135.
The subject of assay [2] is Fusarium graminearum. Description: microbe, parasite or virus in culture. Particulars: isolate CE169.
For assay [3], the system named is Fusarium graminearum. Description: microbe, parasite or virus in culture. Particulars: isolate CE170.
Assay [4] deals with Fusarium graminearum. Description: microbe, parasite or virus in culture. Particulars: isolate CE171.
A further assay concerns Alternaria alternata. Description: Antifungal activity against Alternaria alternata (CE172) after 48 to 72 hr.
In the next assay the test system is Colletotrichum truncatum. Description: Antifungal activity against Colletotrichum truncatum CE175 after 48 to 72 hr.
A further assay has as its system Fusarium equiseti. Description: Antifungal activity against Fusarium equiseti (CE181) after 48 to 72 hr.

Regarding `CC(CCc1ccc(O)cc1)OC(=O)/C=C/c1ccc(O)c(O)c1` (stereo unspecified), the MIC was 6.25 µg/mL (≈ 19 µM) in the assay with Diaporthe longicolla; more than 50 µg/mL against Macrophomina phaseolina; more than 50 µg/mL against Fusarium graminearum [1]; more than 50 µg/mL with Fusarium graminearum [2]; more than 50 µg/mL in the assay on Fusarium graminearum [3]; more than 50 µg/mL in the assay on Fusarium graminearum [4]. Moreover, the MIC against Alternaria alternata, in the assay on Colletotrichum truncatum and against Fusarium equiseti was more than 50 µg/mL in each case.

`CC(CCc1ccc(O)c(O)c1)OC(=O)/C=C/c1ccc(O)c(O)c1` (stereo unspecified): the MIC in the assay with Diaporthe longicolla, with Macrophomina phaseolina, in the assay with Fusarium graminearum [1], in the assay with Fusarium graminearum [2], with Fusarium graminearum [3] and in the assay on Fusarium graminearum [4] was more than 50 µg/mL each time. The MIC in the assay with Alternaria alternata, in the assay with Colletotrichum truncatum and in the assay on Fusarium equiseti was more than 50 µg/mL each time.

As to `O=C(/C=C/c1ccccc1)c1ccc(O)cc1O` [2',4'-DIHYDROXYCHALCONE], the MIC against Diaporthe longicolla came to 3.12 µg/mL (≈ 13 µM); in the assay on Macrophomina phaseolina, 50 µg/mL (≈ 208 µM); with Fusarium graminearum [1], 25 µg/mL (≈ 104 µM); in the assay with Fusarium graminearum [2], 25 µg/mL (≈ 104 µM); against Fusarium graminearum [3], 25 µg/mL (≈ 104 µM); in the assay with Fusarium graminearum [4], 25 µg/mL (≈ 104 µM). The MIC in the assay with Alternaria alternata came out at 25 µg/mL (≈ 104 µM); against Colletotrichum truncatum, 6.25 µg/mL (≈ 26 µM); in the assay with Fusarium equiseti, 25 µg/mL (≈ 104 µM).

For the compound `CO/C=C(/C(=O)OC)c1ccccc1Oc1cc(Oc2ccccc2C#N)ncn1` [AZOXYSTROBIN], the MIC against Diaporthe longicolla came out at 0.05 µg/mL (≈ 0.124 µM); in the assay on Macrophomina phaseolina, 2.5 µg/mL (≈ 6.2 µM); in the assay on Fusarium graminearum [1], 5 µg/mL (≈ 12.4 µM); in the assay with Fusarium graminearum [2], 7.5 µg/mL (≈ 18.6 µM); against Fusarium graminearum [3] it was 0.25 µg/mL (≈ 0.62 µM); with Fusarium graminearum [4], 0.4 µg/mL (≈ 0.992 µM). For the same compound, the MIC against Alternaria alternata was 2.5 µg/mL (≈ 6.2 µM); against Colletotrichum truncatum, 0.05 µg/mL (≈ 0.124 µM); in the assay on Fusarium equiseti, 12.5 µg/mL (≈ 31 µM).

For `COC(=O)Nc1nc2ccccc2[nH]1` [CARBENDAZIM], the MIC in the assay on Diaporthe longicolla was 0.01 µg/mL (≈ 0.0523 µM); in the assay on Macrophomina phaseolina, 0.25 µg/mL (≈ 1.31 µM); in the assay on Fusarium graminearum [1] it was 0.75 µg/mL (≈ 3.92 µM); with Fusarium graminearum [3], 0.75 µg/mL (≈ 3.92 µM); with Fusarium graminearum [4], 0.4 µg/mL (≈ 2.09 µM); in the assay on Alternaria alternata it was 75 µg/mL (≈ 392 µM). For the same compound, the MIC against Colletotrichum truncatum was 0.01 µg/mL (≈ 0.0523 µM); in the assay with Fusarium equiseti it was 0.75 µg/mL (≈ 3.92 µM).

For `CC(=O)N1CCN(c2ccc(OCC3COC(Cn4ccnc4)(c4ccc(Cl)cc4Cl)O3)cc2)CC1` (stereo unspecified) [KETOCONAZOLE], the MIC in the assay with Diaporthe longicolla is 0.5 µg/mL (≈ 0.941 µM); in the assay with Macrophomina phaseolina it was 50 µg/mL (≈ 94.1 µM); against Fusarium graminearum [1], 40 µg/mL (≈ 75.3 µM); in the assay with Fusarium graminearum [2], 40 µg/mL (≈ 75.3 µM); in the assay with Fusarium graminearum [3], 40 µg/mL (≈ 75.3 µM); against Fusarium graminearum [4] it was 40 µg/mL (≈ 75.3 µM). The MIC was 5 µg/mL (≈ 9.41 µM) in the assay with Alternaria alternata, 1.5 µg/mL (≈ 2.82 µM) against Colletotrichum truncatum and 50 µg/mL (≈ 94.1 µM) in the assay on Fusarium equiseti.

`COc1c(O)ccc(C(=O)/C=C/c2ccccc2)c1O` [LARREIN]: the MIC against Diaporthe longicolla worked out at 6.25 µg/mL (≈ 23.1 µM); with Macrophomina phaseolina, 50 µg/mL (≈ 185 µM); with Fusarium graminearum [1], 12.5 µg/mL (≈ 46.2 µM); in the assay with Fusarium graminearum [2], 12.5 µg/mL (≈ 46.2 µM); in the assay with Fusarium graminearum [3], 25 µg/mL (≈ 92.5 µM); in the assay on Fusarium graminearum [4] it was 12.5 µg/mL (≈ 46.2 µM). Also, the MIC amounted to 25 µg/mL (≈ 92.5 µM) against Alternaria alternata, 6.25 µg/mL (≈ 23.1 µM) with Colletotrichum truncatum and 25 µg/mL (≈ 92.5 µM) with Fusarium equiseti.

With `COC(=O)N(OC)c1ccccc1COc1ccn(-c2ccc(Cl)cc2)n1` [PYRACLOSTROBIN], the MIC worked out at 0.01 µg/mL (≈ 0.0258 µM) with Diaporthe longicolla; 2.5 µg/mL (≈ 6.45 µM) against Macrophomina phaseolina; 1 µg/mL (≈ 2.58 µM) against Fusarium graminearum [1]; 20 µg/mL (≈ 51.6 µM) against Fusarium graminearum [2]; 0.05 µg/mL (≈ 0.129 µM) with Fusarium graminearum [3]; 0.05 µg/mL (≈ 0.129 µM) with Fusarium graminearum [4]. In addition, the MIC was found to be 0.4 µg/mL (≈ 1.03 µM) in the assay on Alternaria alternata, 0.04 µg/mL (≈ 0.103 µM) against Colletotrichum truncatum and 12.5 µg/mL (≈ 32.2 µM) against Fusarium equiseti.
